The source of these data is patent publication US7842660B2, “4-hepten-2-yl salicylate and its use as fragrance ingredient” (Givaudan SA, priority 2004, dated 2010).

The test relates to panel of trained evaluators. Put plainly: Determination of the GC-odor threshold values (gas chromatograph with sniff port). To be noted: for odor threshold value, geometric mean: GC sniff port, absolute amount of compound delivered at the sniff port, identical conditions. The source says: As used herein “odor threshold value” means the lowest concentration of a vapor in the air which can be detected by smell. Generally speaking, it can be said that a compound with a low odor threshold value is more powerful than a compound with a high odor threshold value and thus allows the use of a very low concentration in a fragrance composition to achieve an olfactory effect. According to standard procedures known to the person skilled in the art, threshold values for volatile perfumery compounds are determined on a gas chromatograph equipped with a sniff port by a panel of trained evaluators. The lowest concentration smelled by each panelist is recorded as the individual threshold value expressed in ng (absolute amount of compound delivered at the sniff port). By way of comparison, there were also tested (Z)-2-methyl-3-hexen-1-yl salicylate and (Z)-3-hexen-1-yl 2-hydroxy-3-methylbenzoate. The objective was to show the considerable effect exerted by the position of a substituent. Under identical conditions the odor threshold value for the individual compounds was measured.

`CC/C=C\C(C)COC(=O)c1ccccc1O` (centres unmarked) [(Z)-2-Methyl-3-hexen-1-yl salicylate]: the “odor threshold value, geometric mean” value came to 10 ng.
Same read-out and setting: the value for `CC/C=C\CCOC(=O)c1cccc(C)c1O` [(Z)-3-Hexen-1-yl 2-hydroxy-3-methylbenzoate] was 201 ng; that for `CC/C=C\CCOC(=O)c1ccccc1O` [(Z)-3-Hexen-1-yl salicylate] was 0.92 ng.
As for `CC/C=C\CC(C)OC(=O)c1ccccc1O` (centres unmarked) [(Z)-4-Hepten-2-yl salicylate], the “odor threshold value, geometric mean” value is recorded as 0.77 ng. Further, the “odor threshold of the (Z)-isomer relative to the (E)-isomer (times lower)” value ((Z)- vs (E)-4-hepten-2-yl salicylate) is given as “about 10 times”.
